Laboratory results from US20260193644A1, “Compositions and Methods For Modulation of Tumor Suppressors and Oncogenes” (FLAGSHIP PIONEERING INNOVATIONS VII, LLC, priority 2022, published 2026).
Values joined by “and” are separate entries in the source; they are usually repeats but may differ in a detail not shown here. Identical values can stand only once.

B1: SEQ ID NO: 26298: peptide hit of Table E; sequence only in Sequence Listing (peptide, listed as Homo sapiens)
chain: VQSGKCESSVLGYSATCLPDMGRWRVSSVESWPFASTGGKLAIATAGTGTQAAPRPFLIRPPDSWALALALM
B2: SEQ ID NO: 34508: ORF peptide; sequence only in Sequence Listing (peptide, listed as Homo sapiens)
chain: LPLYPLHRKWAGSGLLVFAAPAARAQQGPGEMATVPAPGRTGERALPPPHVSARASFLGSTLWM

Key:
Assay type in all cases: cell-based
U2OS cells [1] = assay: WST-1 proliferation assay on U2OS cells treated with peptide
HCT116 cells = assay: WST-1 proliferation assay on HCT116 cells treated with peptide
Protocol: Proliferation: HCT-116 cells were plated in 96 well plate (5,000 cells/well) grown in standard media supplemented with 10% FBS. After 48 hours incubation at 37° C. (5% CO2), the cells are subjected to the WST-1 ([…]) assay. The WST-1 assay (Sigma) is a measure of the metabolic activity (i.e. proliferative rate) of cells. […]

Jurkat cells = assay: Caspase-Glo 3/7 apoptosis assay, peptide-treated Jurkat cells; settings: listed = significant
Protocol: (§1) Cell Culture: Tumor cell lines HCT-116 (Colon Cancer Cell line, ATCC) and U2OS (Osteoscarcoma Cell line, ATCC) cells were grown adherently in ATCC-formulated McCoy's 5a medium supplemented with 10% FBS and 1× penicillin-streptomycin at 37° C. (5% CO2). Jurkat cells (acute T-cell leukemia cell line, ATCC) were grown as suspension cultures in ATCC-formulated RPMI-1640 supplemented with 10% FBS and 1× penicillin-streptomycin at 37° C. (5% CO2). HEP-G2 cells (Liver Cancer Cell line, ATCC) cells were grown adherently in ATCC-formulated Eagle's Minimum Essential Medium (EMEM) supplemented with 10% FBS and 1× penicillin-streptomycin at 37° C. (5% CO2).
(§2) Peptide Treatment: Target protein SEQ ID NO: 37997 was synthesized through Fluorenylmethyloxycarbonyl (Fmoc) protection group chemistry using Solid Phase Peptide Synthesis (SPPS). 5 μM of target peptide and control peptides were added to a 96 well plate containing 10,000 cells (100 μL/well). A white-walled 96-well plate adequate for cell culture and compatible with the luminometer was used. (Corning)
(§3) Apoptosis Assay: Following 24 hrs of peptide treatment, an equal volume reconstituted Caspase-Glo® 3/7 assay reagent mixture (Promega) was added to the cells. The contents of wells were gently mixed using a plate shaker at 300-500 rpm for 30 seconds. The plate was then Incubate at room temperature for 3 hours. The treated plates were then read for luminescence on Promega™ GloMax® Plate Reader. A blank reaction that contained caspase-Glo® 3/7 reagent, vehicle and cell culture medium without cells was used to measure background luminescence. The blank reaction values were subtracted from experimental values. A negative control that contained caspase-Glo® 3/7 reagent and vehicle-treated cells in medium was included to determine the basal caspase activity of the cell culture system. Significant difference in apoptosis was determined using ANOVA analysis by comparing cells treated with SEQ ID NO: 37997 peptide to cells treated with an irrelevant control peptide, or vehicle control treated cells.

HCT-116 cells = assay: Caspase-Glo 3/7 apoptosis assay, peptide-treated HCT-116 cells; settings: listed = significant
Protocol: as §1, §2, §3

U2OS cells [2] = assay: Caspase-Glo 3/7 apoptosis assay, peptide-treated U2OS cells; settings: listed = significant
Protocol: as §1, §2, §3

[3] = Low sera (continued), 0.5 uM, head 3 SD
[4] = Low sera (continued), 0.1 uM, head 2 SD
[5] = Low sera (continued), 0.1 uM, head 4 SD

Molecule	proliferation hit score, High sera (U2OS cells [1]; 5 uM, head 5 SD)	proliferation hit score, Low sera (U2OS cells [1]; [3])	proliferation hit score, Low sera (U2OS cells [1]; Low sera, 5 uM, head 2 SD)	proliferation hit score, High sera (HCT116 cells; 0.5 uM, head 3 SD)	proliferation hit score, High sera (HCT116 cells; 5 uM, head 3 sd)	proliferation hit score, Low sera (HCT116 cells; [3])	proliferation hit score, Low sera (HCT116 cells; Low sera, 5 uM, head 2 SD)	proliferation hit score, High sera (U2OS cells [1]; 1 uM, head 5 SD)	proliferation hit score, High sera (U2OS cells [1]; 10 uM, head 8 SD)	proliferation hit score, Low sera (U2OS cells [1]; [4])	proliferation hit score, Low sera (U2OS cells [1]; [5])	proliferation hit score, Low sera (U2OS cells [1]; Low sera, 1 uM, head 5 SD)	proliferation hit score, Low sera (U2OS cells [1]; Low sera, 10 uM, head 6 SD)	proliferation hit score, High sera (HCT116 cells; 0.1 uM, head 3 SD)	proliferation hit score, High sera (HCT116 cells; 1 uM, head 2 SD)	proliferation hit score, High sera (HCT116 cells; 10 uM, head 4 SD)	proliferation hit score, Low sera (HCT116 cells; Low sera, 1 uM, head 3 SD)	proliferation hit score, Low sera (HCT116 cells; Low sera, 10 uM, head 3 SD)	other results
SEQ ID NO: 38073: peptide hit of Table E; sequence only in Sequence Listing (MTVSLFLLLATSQSQDGCCDSGSCPNSRQQEGHGAAPASSCLPIP; listed as Homo sapiens)	−4.132 SD	3.652 SD	−1.571 SD	0.3814 SD	−0.2232 SD	0.586 SD	0.1141 SD												
SEQ ID NO: 34047: peptide hit of Table E; sequence only in Sequence Listing (MHINYFFFLKLFLSLQNLILALDLRRESLTRDETQ; listed as Homo sapiens)	−6.825 SD	2.331 SD	−5.958 SD	0.5338 SD	0.008734 SD	1.561 SD	0.3241 SD												
SEQ ID NO: 28759: peptide hit of Table E; sequence only in Sequence Listing (MKKSCRWVFFLITKSLFKETVA; listed as Homo sapiens)	1.2 SD	−1.934 SD	−4.99 SD	−1.466 SD	−1.78 SD	0.5212 SD	−3.329 SD												
SEQ ID NO: 29230: peptide hit of Table E; sequence only in Sequence Listing (REQVPGMGGKSWLFFYSLVFCALLPLPRREDPFKLF; listed as Homo sapiens)								−5.771 SD	−5.758 SD	−2.296 SD	2.01 SD	3.875 SD	2.682 SD	2.159 SD	−0.4364 SD	0.2713 SD	−1.09 SD	−2.162 SD	
SEQ ID NO: 38081: peptide hit of Table E; sequence only in Sequence Listing (MRRAWRPRLLGAALVAH; listed as Homo sapiens)								−15.19 SD	−3.67 SD	−3.47 SD	2.082 SD	1.521 SD	−2.322 SD	−0.4952 SD	−0.4884 SD	−0.5065 SD	−3.589 SD	−2.477 SD	
SEQ ID NO: 29485: ORF peptide; sequence only in Sequence Listing (MRSPLSASALLLWSSSVARAFSSPSLLMAVPSPTCSRY; listed as Homo sapiens)											2.026 SD and 1.922 SD	3.795 SD and 2.322 SD	5.612 SD and 4.323 SD						peptides inducing significant apoptosis vs vehicle control (Jurkat cells): SEQ ID NO: 29485; peptides inducing significant apoptosis (z-score vs vehicle control) (HCT-116 cells): SEQ ID NO: 29485
SEQ ID NO: 38076: ORF peptide; sequence only in Sequence Listing (MHLLLLPVIFLPWVLPQHKHTSATPGFSSEKQFMSETENQTANVKFY; listed as Homo sapiens)	−0.8798 SD	3.033 SD	0.2974 SD	−0.8521 SD	−1.476 SD	0.1011 SD	−0.293 SD												
SEQ ID NO: 36828: ORF peptide; sequence only in Sequence Listing (MAIFFFFCIIVSSLPTAELGTENACSTCLLNE; listed as Homo sapiens)																			z-score compared to vehicle control (peptides inducing significant apoptosis) (U2OS cells [2]): SEQ ID NO: 36828; peptides inducing significant apoptosis vs vehicle control (Jurkat cells): SEQ ID NO: 36828
SEQ ID NO: 38017: peptide hit of Table E; sequence only in Sequence Listing (GVFVVARDRRRRELRTGAFSLLLGVVALLPLCGKRIQALPRACGCGGPEVLVVPR; listed as Homo sapiens)	−3.812 SD	2.343 SD	−2.719 SD	−0.9491 SD	−1.457 SD	−0.1996 SD	−1.525 SD												
SEQ ID NO: 34296: ORF peptide; sequence only in Sequence Listing (MFFCRNYGSFWFYVLSKMLSFFICLLIFVHLLLLSFLISDWPPPTGSAEHKYSG; listed as Homo sapiens)																			peptides inducing significant apoptosis vs vehicle control (Jurkat cells): SEQ ID NO: 34296
SEQ ID NO: 33681: peptide hit of Table E; sequence only in Sequence Listing (IMAIFFFFCIIVSSLPTAELGTENACSTCLLNE; listed as Homo sapiens)								−0.8283 SD	−10.57 SD	−1.01 SD	4.988 SD	9.376 SD	−6.861 SD	0.9926 SD	−3.672 SD	−8.606 SD	0.1255 SD	−2.584 SD	
SEQ ID NO: 33599: ORF peptide; sequence only in Sequence Listing (MCLGLLFCFMPLSLVVSSEEARFKVAADLCGFATGNSW; listed as Homo sapiens)								−2.566 SD	−14.68 SD	−0.8886 SD	2.01 SD	4.323 SD	−8.391 SD	0.5427 SD	−0.6105 SD	−4.843 SD	−0.9914 SD	−5.29 SD	
B1		2.391 SD and 2.95 SD																	
B2	−0.8798 SD	5.043 SD	1.344 SD	0.2038 SD	−0.02329 SD	0.9567 SD	1.932 SD	−1.711 SD	−12.11 SD	1.335 SD	3.475 SD	4.275 SD	−11.74 SD	−5.097 SD	−2.867 SD	−5.856 SD	−1.6 SD	−3.628 SD	
